Assay results taken from PubChem BioAssay (NCI).
Values joined by “and” are separate entries in the source; they are usually repeats but may differ in a detail not shown here. Equal values may be shown once.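 Interpolation was linear, between the two tested concentrations surrounding the appropriate level; five concentrations were tested over 48 hours in 96-well plates. Here, GI50 denotes the concentration required for 50% inhibition of growth. Definition used: TGI = concentration required for complete inhibition of growth.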

Columns and labels:
Test in all cases: NCI tumour cell line growth inhibition, 48 h
MCF7 breast = system: MCF7 breast
PC-3 prostate = system: PC-3 prostate
P388/ADR leukemia = system: P388/ADR leukemia
LOX IMVI melanoma = system: LOX IMVI melanoma
SR leukemia = system: SR leukemia
KM12 colon = system: KM12 colon
SN12K1 renal = system: SN12K1 renal
XF 498 CNS = system: XF 498 CNS
MDA-N = system: MDA-N
A498 renal = system: A498 renal
DU-145 prostate = system: DU-145 prostate
T-47D breast = system: T-47D breast
SK-MEL-5 melanoma = system: SK-MEL-5 melanoma
HS 578T breast = system: HS 578T breast
HCT-15 colon = system: HCT-15 colon
HOP-92 NSCLC = system: HOP-92 NSCLC
786-0 renal = system: 786-0 renal
MDA-MB-231 breast = system: MDA-MB-231 breast
A549 NSCLC = system: A549 NSCLC
OVCAR-5 ovarian = system: OVCAR-5 ovarian
HOP-18 NSCLC = system: HOP-18 NSCLC
SW-620 colon = system: SW-620 colon
LXFL 529 NSCLC = system: LXFL 529 NSCLC
BT-549 breast = system: BT-549 breast
HT29 colon = system: HT29 colon
KM20L2 colon = system: KM20L2 colon
HCT-116 colon = system: HCT-116 colon
M19-MEL melanoma = system: M19-MEL melanoma
RPMI-8226 leukemia = system: RPMI-8226 leukemia
MDA-MB-435 = system: MDA-MB-435
NCI-H460 lung = system: NCI-H460 lung
OVCAR-4 ovarian = system: OVCAR-4 ovarian
DMS 114 small cell lung = system: DMS 114 small cell lung
IGROV1 ovarian = system: IGROV1 ovarian
MALME-3M melanoma = system: MALME-3M melanoma
EKVX NSCLC = system: EKVX NSCLC
CAKI-1 renal = system: CAKI-1 renal
TK-10 renal = system: TK-10 renal
SNB-78 CNS = system: SNB-78 CNS
P388 leukemia = system: P388 leukemia
OVCAR-8 ovarian = system: OVCAR-8 ovarian
SK-OV-3 ovarian = system: SK-OV-3 ovarian
SK-MEL-28 melanoma = system: SK-MEL-28 melanoma
DMS 273 small cell lung = system: DMS 273 small cell lung
NCI/ADR-RES ovarian = system: NCI/ADR-RES ovarian
UO-31 renal = system: UO-31 renal
SNB-19 CNS = system: SNB-19 CNS
CCRF-CEM leukemia = system: CCRF-CEM leukemia
M14 melanoma = system: M14 melanoma
NCI-H23 lung = system: NCI-H23 lung
NCI-H522 lung = system: NCI-H522 lung
HCC-2998 colon = system: HCC-2998 colon
NCI-H226 lung = system: NCI-H226 lung
MOLT-4 leukemia = system: MOLT-4 leukemia
SN12C renal = system: SN12C renal
UACC-62 melanoma = system: UACC-62 melanoma
U251 CNS = system: U251 CNS
ACHN renal = system: ACHN renal
HOP-62 NSCLC = system: HOP-62 NSCLC
SF-268 CNS = system: SF-268 CNS
UACC-257 melanoma = system: UACC-257 melanoma
RXF 393 renal = system: RXF 393 renal
K-562 leukemia = system: K-562 leukemia
OVCAR-3 ovarian = system: OVCAR-3 ovarian
DLD-1 colon = system: DLD-1 colon
SK-MEL-2 melanoma = system: SK-MEL-2 melanoma
COLO 205 colon = system: COLO 205 colon
SF-295 CNS = system: SF-295 CNS
SNB-75 CNS = system: SNB-75 CNS
RXF-631 renal = system: RXF-631 renal
SF-539 CNS = system: SF-539 CNS

In the case of `COc1cc([C@@H]2c3cc4c(cc3[C@@H](OC3OC5COC(C)OC5C(O)C3O)[C@H]3COC(=O)[C@H]23)OCO4)cc(OC)c1O` (some centres not stated), the TGI (MCF7 breast) is reported as 103 µM and 500 µM and 432 µM, the GI50 (PC-3 prostate) is reported as 12.9 µM and 7.68 µM and the TGI (P388/ADR leukemia) is reported as 411 µM. For the same molecule, the TGI (LOX IMVI melanoma) was > 81.1 µM and 11.6 µM and 42.9 µM, the TGI (SR leukemia) was 84.8 µM and 26.1 µM and 13.3 µM and the TGI (KM12 colon) was 27.1 µM and 23.9 µM and 92.2 µM. For the same molecule, the TGI (SN12K1 renal) was 66.6 µM, the TGI (XF 498 CNS) was 73.6 µM and 71.1 µM and the GI50 (MDA-N) was 18.6 µM. The TGI (MDA-N) was 4.36 µM, the TGI (A498 renal) was 59.9 µM and 12 µM and 55.4 µM and the GI50 (DU-145 prostate) was 2.3 µM and 1.67 µM. The GI50 (T-47D breast) was 0.516 µM, the TGI (T-47D breast) was 5.18 µM and the TGI (SK-MEL-5 melanoma) was 47.2 µM and 10.8 µM and 32.5 µM. The GI50 (HS 578T breast) was 2.86 µM and 5.72 µM, the TGI (HCT-15 colon) was 285 µM and 169 µM and the TGI (HOP-92 NSCLC) was 37.9 µM and 114 µM. The TGI (786-0 renal) was 43.3 µM and 28.1 µM and 9.35 µM, the GI50 (MDA-MB-231 breast) was 7.49 µM and 5.82 µM and the TGI (MDA-MB-231 breast) was > 35 µM and 34.4 µM and 8.11 µM. The TGI (A549 NSCLC) was 61.4 µM and 108 µM, the TGI (OVCAR-5 ovarian) was 64.2 µM and 121 µM and 169 µM and the TGI (HOP-18 NSCLC) was 121 µM and 232 µM. The TGI (SW-620 colon) was 54.6 µM and 159 µM, the TGI (LXFL 529 NSCLC) was 218 µM and the GI50 (BT-549 breast) was 1.83 µM. For the same molecule, the TGI (BT-549 breast) was 41.2 µM and 35 µM and 6.05 µM, the TGI (HT29 colon) was 79.8 µM and 500 µM and 125 µM and the TGI (KM20L2 colon) was 133 µM and 225 µM. The TGI (HCT-116 colon) was 25.8 µM and 90.4 µM and 130 µM, the TGI (M19-MEL melanoma) was 50.3 µM and 332 µM and the GI50 (RPMI-8226 leukemia) was 14.8 µM and 2.41 µM. For the same molecule, the TGI (RPMI-8226 leukemia) was > 71.7 µM and 68 µM, the TGI (MDA-MB-435) was 19 µM and 50 µM and the TGI (NCI-H460 lung) was 57 µM and 9.96 µM and 25.3 µM. For the same molecule, the TGI (OVCAR-4 ovarian) was 124 µM and 500 µM and 292 µM, the TGI (DMS 114 small cell lung) was 24.6 µM and 66.8 µM and the TGI (IGROV1 ovarian) was 67.8 µM and 159 µM and 157 µM. For the same molecule, the TGI (MALME-3M melanoma) was 72 µM [middle of 4 runs], the TGI (EKVX NSCLC) was 149 µM and 500 µM and 183 µM and the TGI (CAKI-1 renal) was 31.4 µM and 77.1 µM and 49.2 µM. The TGI (TK-10 renal) was > 84.4 µM and 48.8 µM and 32 µM, the TGI (SNB-78 CNS) was 154 µM and 604 µM and the TGI (P388 leukemia) was 9.88 µM. The TGI (OVCAR-8 ovarian) was 117 µM and 500 µM and 156 µM, the TGI (SK-OV-3 ovarian) was 62.3 µM and 500 µM and 120 µM and the TGI (SK-MEL-28 melanoma) was 125 µM and 363 µM and 198 µM. For the same molecule, the GI50 (DMS 273 small cell lung) was 58.8 µM, the TGI (DMS 273 small cell lung) was 32.9 µM and the TGI (NCI/ADR-RES ovarian) was 178 µM and 500 µM and 650 µM. The TGI (UO-31 renal) was 110 µM and 89.7 µM and 175 µM and the TGI (SNB-19 CNS) was 118 µM and 500 µM and 171 µM.
`CC(=O)OC1COC(N2C(=O)C(=O)c3ccccc32)C(OC(C)=O)C1OC(C)=O` (configuration not stated) was tested, and the TGI (CCRF-CEM leukemia) was greater than 100 µM, the TGI (LOX IMVI melanoma) was greater than 100 µM and the TGI (M14 melanoma) was greater than 100 µM. The TGI (SR leukemia) was greater than 100 µM, the TGI (KM12 colon) was greater than 100 µM and the TGI (NCI-H23 lung) was greater than 100 µM. For the same molecule, the TGI (A498 renal) was greater than 100 µM, the TGI (NCI-H522 lung) was greater than 100 µM and the TGI (HCC-2998 colon) was greater than 100 µM. For the same molecule, the TGI (NCI-H226 lung) was greater than 100 µM, the TGI (SK-MEL-5 melanoma) was greater than 100 µM and the TGI (HCT-15 colon) was greater than 100 µM. For the same molecule, the TGI (HOP-92 NSCLC) was greater than 100 µM, the TGI (MOLT-4 leukemia) was greater than 100 µM and the TGI (SN12C renal) was greater than 100 µM. It also gave a TGI (UACC-62 melanoma) greater than 100 µM, a TGI (U251 CNS) greater than 100 µM and a TGI (ACHN renal) greater than 100 µM. The TGI (786-0 renal) was greater than 100 µM, the TGI (A549 NSCLC) was greater than 100 µM and the TGI (HOP-62 NSCLC) was greater than 100 µM. The TGI (SF-268 CNS) was greater than 100 µM, the TGI (SW-620 colon) was greater than 100 µM and the TGI (LXFL 529 NSCLC) was greater than 100 µM. It also gave a TGI (HT29 colon) greater than 100 µM, a TGI (KM20L2 colon) greater than 100 µM and a TGI (UACC-257 melanoma) greater than 100 µM. The TGI (M19-MEL melanoma) was greater than 100 µM, the TGI (RXF 393 renal) was greater than 100 µM and the TGI (RPMI-8226 leukemia) was greater than 100 µM. The TGI (NCI-H460 lung) was greater than 100 µM, the TGI (K-562 leukemia) was greater than 100 µM and the TGI (OVCAR-3 ovarian) was greater than 100 µM. The TGI (OVCAR-4 ovarian) was greater than 100 µM, the TGI (DLD-1 colon) was greater than 100 µM and the TGI (DMS 114 small cell lung) was greater than 100 µM. It also gave a TGI (IGROV1 ovarian) greater than 100 µM, a TGI (MALME-3M melanoma) greater than 100 µM and a TGI (EKVX NSCLC) greater than 100 µM. The TGI (CAKI-1 renal) was greater than 100 µM, the TGI (SK-MEL-2 melanoma) was greater than 100 µM and the TGI (COLO 205 colon) was greater than 100 µM. The TGI (TK-10 renal) was greater than 100 µM, the TGI (SNB-78 CNS) was greater than 100 µM and the TGI (SF-295 CNS) was greater than 100 µM. It also gave a TGI (SNB-75 CNS) greater than 100 µM, a TGI (OVCAR-8 ovarian) greater than 100 µM and a TGI (SK-OV-3 ovarian) greater than 100 µM. The TGI (SK-MEL-28 melanoma) was greater than 100 µM, the TGI (DMS 273 small cell lung) was greater than 100 µM and the TGI (RXF-631 renal) was greater than 100 µM. The TGI (SF-539 CNS) was greater than 100 µM, the TGI (UO-31 renal) was greater than 100 µM and the TGI (SNB-19 CNS) was greater than 100 µM.
